Measurements taken from patent US9926585B2, “Method for producing a minor ginsenoside using a ginsenoside glycosidase” (INTELLIGENT SYNTHETIC BIOLOGY CENTER, priority 2015, dated 2018).
Entries after “also recorded” stand apart in the source; their conditions may differ. Where two headings read alike, the source gives them in different places.

Legend:
[1] = system: ginsenoside glycosidase MT619; assay: Effects of metals and chemical reagents on MT619 activity (residual activity, pNPG substrate); assay type: biochemical, Microbacterium testaceum
[2] = system: ginsenoside glycosidase MT619; assay: Ginsenoside conversion ability of MT619 (TLC); assay type: biochemical, Microbacterium testaceum; conditions: 2.0 mg/ml MT619, 2.0 mg/ml substrate, 37° C., 1.5 hr
Experimental: In order to analyze the specificity and selectivity of the enzyme for the hydrolysis of a sugar attached at the C-6 position of ginsenoside, ginsenoside Re, Rg1 and Rg2 were used as the substrates.
2.0 mg/ml of MT619 in 50 mM sodium phosphate buffer (pH 7.0) was reacted with each 2.0 mg/ml of the three substrates in 50 mM sodium phosphate (pH 6.0) at an equal volume at 37° C. In order to measure cleavage activity of MT619, the samples were collected at 1.5 hr after reaction, and an equal volume of water-saturated butanol was added to stop the reaction. The n-butanol fraction was evaporated to dryness, and residual material was dissolved in CH3OH and then examined by thin layer chromatography (TLC), and the results are given in FIG. 4.

[3] = system: ginsenoside glycosidase MT619; assay: Substrate specificity of MT619 with chromogenic ONP and PNP substrates; assay type: biochemical, Microbacterium testaceum; conditions: for substrate specificity of MT619: 2.0 mM substrate, 37° C.; for Relative activity (%) MT619: final substrate concentration 2.0 mM, 37° C. for 5 minutes, relative to enzymatic activity for pNP-β-D-glucopyranoside
Experimental: In order to analyze substrate specificity of […], 2.0 mM chromogenic O-nitrophenyl (ONP) and p-nitrophenyl (PNP) were used as substrates, and measured at 37° C. for 5 minutes. 1 activity unit was defined as the release of 1 μmol of o-nitrophenol or p-nitrophenol per minute. Substrates used for analysis were pNP-α-L-arabinofuranoside, pNP-β-L-arabinopyranoside, pNP-α-L-D-fucopyranoside, pNP-α-L-rhamnopyranoside, pNP-α-D-glucopyranoside, pNP-α-D-mannopyranoside, pNP-β-D-galactopyranoside, oNP-β-D-glucopyranoside, oNP-β-D-fucopyranoside, pNP-β-D-xylopyranoside, pNP-β-L-arabinofuranoside, oNP-β-D-fucopyranoside, oNP-α-D-galactopyranoside, and pNP-β-D-glucopyranoside, which were purchased from Sigma.

[4] = Effect of pH on enzymatic activity and stability of MT619; assay type: biochemical
Experimental: In order to measure the effect of pH on the enzymatic activity of MT619, 2.0 mM pNPGlc (p-nitrophenyl-D-glucopyranoside; Sigma) was used as a substrate, and pH was adjusted using the following buffer (50 mM). pH range of 2 to 10: KCl—HCl (pH 2), glycine-HCl (pH 3), sodium acetate (pH 4 and pH 5), sodium phosphate (pH 6 and pH 7), Tris-HCl (pH 8 and pH 9) and glycine-sodium hydroxide (pH 10).
Further, the effect of pH on the enzymatic stability was measured. Enzyme was incubated in each of the above mentioned buffers at 4° C. for 24 hours, and then pNPGlc was analyzed in 50 mM potassium buffer to measure the enzymatic stability according to pH change. Residual activity was analyzed according to a standard analytical procedure, and the results are given in FIG. 2 as an activity percentage obtained at the optimum pH.

[5] = F1 production ability from ginsenoside Rg1, MT619 compared with BgpA; assay type: biochemical
Excerpt: In order to evaluate production ability of MT619 to produce F1 by using Rg1 as a substrate, its F1 production ability was compared with that of ginsenoside glucosidase derived from […].
BgpA derived from Terrabacter ginsenosidimutans, which is known to produce F1 by using ginsenoside Rg1 as a substrate, was used as a comparative control group.

[6] = assay type: biochemical; conditions: 2.0 mM pNPGlc, 50 mM potassium phosphate buffer, 10 minutes, 4 to 65° C.
Experimental: In order to measure the effect of temperature on the enzymatic activity of MT619, 2.0 mM pNPGlc (p-nitrophenyl-3-Dglucopyranoside; Sigma) was used to analyze the temperature-dependent activity in the 50 mM potassium phosphate buffer at the optimum pH for 10 minutes while varying the temperature between 4 to 65° C.
Further, in order to measure the effect of temperature on the enzymatic stability of MT619, the equivalent amount of enzyme was incubated in 50 mM potassium phosphate buffer within the same temperature range for 30 minutes. In detail, the sample was cooled in ice for 10 minutes, and temperature stability analysis was performed by measuring the residual activity according to a standard analytical procedure, and the results are given in FIG. 3.

[7] = 10 mM reagent, 37° C. for 30 minutes, pNPG substrate, residual activity as percentage of activity without the compounds

In the case of `O[C@H](CS)[C@H](O)CS` (racemic) [DTT, dithiothreitol], the “Relative activity (%)” value [1, 7] is reported as 79.6 ± 1.6%.

With `OCCS` [Beta-Mercaptoethanol] the “Relative activity (%)” value [1, 7] was 94 ± 2%.

For `[Ca+2].[Cl-].[Cl-]` [CaCl2], the “Relative activity (%)” value [1, 7] was 132.8 ± 2.4% and the “effect of ions on enzymatic activity of MT619” value (shortened to “effect of ions”) ([1]; 10 mM, 37° C., 30 minutes, listed as Ca^2+) was “did not greatly increase; also recorded: not greatly increased”.

For `[Cl-].[Cl-].[Co+2]` [CoCl2], the “Relative activity (%)” value [1] was 17.9 ± 0.5% and the “effect of ions” value [1] was “strongly inhibited”.

With `[Cl][Cu][Cl]` [CuCl2] the “effect of ions” value ([1]; 10 mM, 37° C., 30 minutes) was “strongly inhibited”.

For `O=C(O)CN(CCN(CC(=O)O)CC(=O)O)CC(=O)O` [EDTA], the “Relative activity (%)” value [1] was 80.9 ± 2.3%.

With `[Cl][Hg][Cl]` [HgCl2] the “effect of ions” value ([1]; 10 mM, 37° C., 30 minutes) was “strongly inhibited”.

With `[Cl-].[K+]` [KCl] the “Relative activity (%)” value [1, 7] was 95.3 ± 1.1% and the “effect of ions” value ([1]; 10 mM, 37° C., 30 minutes, listed as K^+) was “did not greatly increase; also recorded: not greatly increased”.

With `[Cl-].[Cl-].[Mg+2]` [MgCl2] the “Relative activity (%)” value [1, 7] was 112.7 ± 4.1%.

For `[Cl][Mn][Cl]` [MnCl2], the “Relative activity (%)” value [1, 7] was 59.9 ± 2.6%.

With `[Cl-].[Na+]` [Nacl, NaCl] the “Relative activity (%)” value [1, 7] was 128.1 ± 3.7% and the “effect of ions” value ([1]; 10 mM, 37° C., 30 minutes, listed as Na^+) was “did not greatly increase; also recorded: not greatly increased”.

In the case of `CC(C)=CCC[C@](C)(O[C@@H]1O[C@H](CO)[C@@H](O)[C@H](O)[C@H]1O)[C@H]1CC[C@]2(C)[C@@H]1[C@H](O)C[C@@H]1[C@@]3(C)CC[C@H](O)C(C)(C)[C@@H]3[C@@H](O[C@@H]3O[C@H](CO)[C@@H](O)[C@H](O)[C@H]3O[C@@H]3O[C@@H](C)[C@H](O)[C@@H](O)[C@H]3O)C[C@]12C` [Re, ginsenoside Re], the “conversion of ginsenoside by MT619 (TLC, words)” value [2] is reported as “converted into ginsenoside F1”.

In the case of `CC(C)=CCC[C@](C)(O[C@@H]1O[C@H](CO)[C@@H](O)[C@H](O)[C@H]1O)[C@H]1CC[C@]2(C)[C@@H]1[C@H](O)C[C@@H]1[C@@]3(C)CC[C@H](O)C(C)(C)[C@@H]3[C@@H](O[C@@H]3O[C@H](CO)[C@@H](O)[C@H](O)[C@H]3O)C[C@]12C` [Rg1, ginsenoside Rg1], the “conversion of ginsenoside by MT619 (TLC, words)” value [2] is reported as “conversion of ginsenoside Rg1 into F1 was confirmed; also recorded: converted into ginsenoside F1”.

In the case of `CCCCCCCCCCCCOS(=O)(=O)[O-].[Na+]` [SDS], the “Relative activity (%)” value [1, 7] is reported as 80.6 ± 6.1%.

In the case of `[Cl-].[Cl-].[Zn+2]` [ZnCl2], the “effect of ions” value ([1]; 10 mM, 37° C., 30 minutes) is reported as “strongly inhibited”.

For `O=[N+]([O-])c1ccccc1O[C@@H]1O[C@H](CO)[C@@H](O)[C@H](O)[C@H]1O` [oNP-β-glucopyranoside, oNP-β-D-glucopyranoside], the “substrate specificity of MT619” value [3] was “showed substrate specificity” and the “Relative activity (%) MT619” value [3] was 28.7 ± 2.1%.

For `O=[N+]([O-])c1ccc(O[C@@H]2O[C@H](CO)[C@@H](O)[C@H](O)[C@H]2O)cc1` [pNP-β-D-glucopyranoside, p-nitrophenyl-β-D-glucopyranoside], the “substrate specificity of MT619” value [3] was “highest substrate specificity” and the “Relative activity (%) MT619” value [3] was 100 ± 1.2%.

B1: MT619: ginsenoside glycosidase of SEQ ID NO: 1 screened from Microbacterium testaceum, 619 amino acids (protein, listed as Microbacterium testaceum)
chain: MTHARFLTAPDGTRFRDLNGNGVMDPYENPALSVEERTDDLVSRLSLEEKVGLMFQTVIEVGDEGELLEAPGKISKSPTTTVVVGKHMNHFNVHAIRTARQAATWNNNLQALAETTPHGIPVTISTDPRHAFVENTGVAFSAGPFSQWPEGLGLAALDDVDTVREFAEVARREYVAVGIRAALHPQIDLATEPRWGRQAQTLGQDAARVTEFTAAYLQGFQGDELGPDSVACTTKHFPGGGPQLDGEDAHFPYGREQVYPGGMFDYHLEPFREAIRCGTAGMMPYYGMPVGLEVDGLPIEEVGFGYNRQIITGLLREQLGYDGVVVTDWELVNDNHVGDQVLPARAWGVEHLSAVERMEKILDAGSDQFGGEECVEMLVDLVRAGRVSEERIDESVRRLLRVKFQLGLFDDPYVDVDEAERIVGNAEFRALGERAQAHSLTVLVNEGDVLPLRPAGAVYIEGFRPDDVAELGRVVTDPAEADLAIVRIGAPFDPRDDLFLEAWFHQGSLEFAPGLVYRLQQIAASCPLILVVNLDRPAILTPFVGHAAAIVADYGSSSAAVLDALTGRVPPRGRLPIEIPRSMDAVRSSREDVPSDTGDPVFPVHHGVELKVSTGAQRG
For B1, the “pH of highest activity and stability” value ([4]; pH 2 to 10 buffers 50 mM, stability after 4° C. for 24 hours) was 7.0, the “pH of highest stability” value ([4]; summary statement of Example 3-2) was 7.0 and the “time of highest F1 production ability after initiation of the reaction” value ([5]; enzyme 0.1 mg/ml, Rg1 substrate) was 2 h. The F1 produced ([5]; enzyme concentration 0.1 mg/ml, Rg1 (2.0 mg/ml) as substrate) was 1.3 mg, the “production of F1 relative to BgpA” value ([5]; enzyme concentration 0.1 mg/ml, Rg1 as substrate) was 7 times and the “temperature of highest activity (optimum temperature)” value [6] was 45 °C.
